Assay results: US9359323B2, “Compound” (priority 2010, dated 2016)

Columns and labels:
[1] = test system: mouse embryonic stem cell line E14Tg2a; assay: tert-butyl hydroperoxide (tBHP) challenge of mES cells, MTT viability assay; format: cell-based
Protocol: The mouse embryonic stem cell line E14Tg2a was maintained in a pluripotent state in knockout (KO) DMEM supplemented with leukaemia inhibitory factor (LIF), 15% (v/v) knockout serum replacement, 0.1 mM MEM non-essential amino acids, 2 mM 1-glutamine and 140 μM 2-mercaptoethanol in tissue culture flasks coated with 0.1% (w/v) gelatin.
(§1) mES cells were plated into a 0.1% (w/v) gelatin coated 96-well tissue culture plate at a density of 1.5×10^4 cells per well. The cells were cultured at 37° C. in an atmosphere of 5% CO2 for 20-24 hours before the addition of AO3003, 30 minutes prior to the onset of the tert-butyl hydroperoxide (tBHP) challenge. The cells were incubated with tBHP for 90 minutes at 37° C. (5% CO2) before 20 μl 5 mg/ml 3-(4,5-Dimethyl-2-thiazolyl)-2,5-diphenyl-2H-tetrazolium bromide (MTT) was added to each of the treatment wells. The cells were incubated for a further 3 hours at 37° C. (5% CO2) before all the supernatant was removed from the cells and the insoluble MTT formazan dye, produced by the reduction of MTT by viable cells, was solubilised in 200 μl dimethyl sulfoxide (DMSO). The absorbance of the resulting solution was measured at 540 nm and was proportional to the number of viable mES cells remaining after the tBHP challenge.
as §1, with “of 7.5×10^3” for “of 1.5×10^4”, “AO3003, 20 hours” for “AO3003, 30 minutes”, “insoluble MIT” for “insoluble MTT”

[2] = test system: mouse β-cell insulinoma line MIN-6; assay: tert-butyl hydroperoxide (tBHP) challenge of MIN-6 cells, MTT viability assay; format: cell-based; settings: compound added 30 minutes prior to tBHP, FIG. 3
Protocol: The mouse β-cell insulinoma line MIN-6 was maintained in high glucose DMEM supplemented with 15% heat-inactivated foetal bovine serum (FBS) and 70 μM 2-mercaptoethanol.
as §1, with “MIN-6 cells were” for “mES cells were”, “into a 96-well tissue” for “into a 0.1% (w/v) gelatin coated 96-well tissue”, “density of 2.0×10^4 cells per” for “density of 1.5×10^4 cells per”, “tBHP for 30 minutes at” for “tBHP for 90 minutes at”, “reduction of MIT by viable” for “reduction of MTT by viable”, “tBHP challenge. DMEM is the control viability of cells without peroxide or tBHP.” for “tBHP challenge.”

O=c1c(O)c(-c2cc(O)c(O)c(O)c2)oc2cc(C3CCCCC3)ccc12 [AO3003]
reversal of oxidative stress-induced loss of viability ([1]; 2 μM, compound added 20 hours prior to tBHP challenge, MTT, FIG. 2): significantly reverses oxidative stress-induced loss of viability | toxicity (control cell viability without tBHP) ([1]; cell viability at 24 h after 0, 1 and 2 μM exposure): not toxic | period the compound remains bioprotective once incorporated into the cell ([1]; mES cells, tBHP challenge, Experiment 2): > 24 h | protection against oxidative stress ([1]; mouse embryonic stem cell line, tBHP, summary of Experiments 1 and 2): protects against oxidative stress | protection against oxidative stress [2]: protects against oxidative stress
